Assay: mn = molality of the nth substance listed, in mol/kg
Settings: 101 kPa, Liquid, METLER TOLEDO SevenEasy conductivity meter

O=[N+]([O-])[O-].O=[N+]([O-])[O-].O=[N+]([O-])[O-].[Ce+3] [cerium nitrate] + O
electrical conductivity [S/m]
Settings	m1 = 0.5112	m1 = 1.031	m1 = 1.555	m1 = 1.997	m1 = 3.131	m1 = 3.968	m1 = 4.462
293.15 K	6.618	8.513	8.217	7.244	4.309	2.67	1.912
298.15 K	7.4	9.446	9.15	8.103	4.9	3.1	2.244
308.15 K	8.78	11.24	10.9	9.78	6.136	4.018	2.96

O=[N+]([O-])[O-].O=[N+]([O-])[O-].O=[N+]([O-])[O-].[Nd+3] [neodymium(III) nitrate] + O
electrical conductivity [S/m]
Settings	m1 = 0.522	m1 = 1.021	m1 = 1.555	m1 = 2.093	m1 = 3.086	m1 = 4.124	m1 = 4.297
293.15 K	6.78	8.78	8.65	7.44	4.708	2.521	2.219
298.15 K	7.48	9.66	9.545	8.27	5.329	2.931	2.623
308.15 K	8.97	11.5	11.44	10.01	6.65	3.821	3.422

O=[N+]([O-])[O-].O=[N+]([O-])[O-].O=[N+]([O-])[O-].[Y+3] [yttrium nitrate] + O
electrical conductivity [S/m]
Settings	m1 = 0.4989	m1 = 0.9965	m1 = 1.497	m1 = 1.982	m1 = 2.947	m1 = 3.945	m1 = 4.957
293.15 K	7.202	10.03	10.36	9.433	6.35	3.68	1.89
298.15 K	8.339	11.6	12	10.9	7.421	4.4	2.28
308.15 K	9.922	13.7	14.17	13.03	9.08	5.611	3.08

— the NIST ThermoML archive (doi:10.1021/je200415u)
